62 compounds from a melting point compilation (Tetko et al.; mined from patent text by program, amines drawn as free bases though some values may be those of a salt) can be followed below.

For the compound `C=C(C)CSCC(C)C1CC=C2C3=C(CCC21C)C1(C)CCC(O)C(C)(C)C1CC3` (configuration not stated), the melting point was in the range of 128 to 132 °C.

`O=C(c1ccc(Cl)cc1Cl)C1(c2cccnc2)CC1` showed a melting point of 83 °C.

Compound `Cc1nc2c(O[C@@H]3c4ccccc4C[C@H]3O)cc(C(=O)N(C)C)cn2c1C` (relative stereo) showed a melting point of 122 °C.

Consider `Cc1cc(N2CCN(c3nc(-c4ccccc4)nc(C)c3C)CC2)cc(C)c1O`, for which the melting point was 188 to 189 °C.

`CN(C(=O)c1ccc2nonc2c1)C1CCC(F)(F)CC1`: the melting point fell in the range of 137 to 138 °C.

The compound `CN(C)c1ccc2ccc(=O)oc2c1` yielded a melting point of 161 °C.

`O=C(NCCCCCC1CCSS1)c1cccnc1` (configuration not stated) returned a melting point of 41 to 44 °C.

Regarding `CCc1c(C=O)c2ccc(C(N)=O)cc2n1Cc1ccccc1Cl`, the melting point fell in the range of 260 to 261 °C.

The compound `O=C1c2c(OCc3ccccc3)cccc2-c2nn(CCN(CCO)Cc3ccccc3)c3ccc(Cl)c1c23` yielded a melting point of 130 to 134 °C.

Turning to `COc1ccc(C2CCN(CCC3CCCCc4ccccc43)CC2)cc1OC` (configuration not stated), the melting point is 127 to 128 °C.

For `NS(=O)(=O)C1=CC2=C(OCCO)CCS(=O)(=O)C2S1` (configuration not stated), the melting point is 159 to 164 °C.

The compound `FC(F)(F)c1ccc(-c2nc(Cl)cc(-c3ccccc3)n2)cc1` showed a melting point of 82 to 84 °C.

On to `CC(=O)OCc1ccc2oc(=O)c(C(=O)Oc3cncc(Cl)c3)cc2c1`, for which the melting point is 153 to 155 °C.

Compound `CC(=O)Nc1c(C#N)cnn1-c1c(Cl)cc(Cl)cc1Cl` registered a melting point of 163 to 164 °C.

`Nc1ccc(N2CCN(Cc3ncc(-c4ccccc4)o3)CC2)cc1` showed a melting point of 130 °C.

For `CCNC(=O)c1c[nH]c2ncc(-c3nn(C)c4cc(Cl)ccc34)nc12`, the melting point fell in the range of 373 to 377 °C.

Regarding `CNC(=C[N+](=O)[O-])NCCCOc1cccc(CCN(C)C)c1`, the melting point was in the range of 93 to 94 °C.

Regarding `CCCCc1noc(-c2sccc2N)n1`, the melting point lay in the range of 69 to 70 °C.

As to `Cc1ccc(S(=O)(=O)OCC(NC(=O)OC(C)(C)C)C(C)C)cc1` (configuration not stated), the melting point worked out at 85 °C.

With `O=C(O)CCCc1ccc(CCNS(=O)(=O)c2ccccc2)cc1`, the melting point was 70 to 71 °C.

For `CC(=O)OCCC1CCC2C3CCC4CCCCC4(C)C3CCC12C` (configuration not stated), the melting point lay in the range of 123 to 125 °C.

On to `O=C(CO)Nc1nc2c(Cl)cccc2s1`, for which the melting point lay in the range of 242 to 245 °C.

For `Cc1cc2c(cc1Br)N(C1CC1)C=NS2(=O)=O`, the melting point lay in the range of 219 to 220 °C.

Compound `COc1ccccc1C=C1CCc2c1oc1ccc(C(=O)O)cc1c2=O` had a melting point of 273 to 275 °C.

Turning to `CCOC(=O)C(=O)CC(=O)c1cn(Cc2ccc(F)cc2)c2ccc(F)cc2c1=O`, the melting point lay in the range of 152 to 153 °C.

For the compound `O=S(=O)(F)CCCCCCCc1ccc(O)cc1`, the melting point was 47 to 51 °C.

Compound `O=C(O)c1ccc(OC23CC4CC(CC(C4)C2)C3)cc1` gave a melting point of 223 to 226 °C.

`COC(=O)CC1c2cc([N+](=O)[O-])ccc2N(C(C)=O)C1C` (configuration not stated) showed a melting point of 106 °C.

As for `O=C(CBr)c1cc(OCc2ccccc2)c(OCc2ccccc2)c(OCc2ccccc2)c1`, the melting point lay in the range of 112 to 113 °C.

Regarding `COc1ccc(C=Cc2nc3c([nH]2)c(=O)n(C)c(=O)n3C)cc1`, the melting point is above 320 °C.

Turning to `COC(=O)C(C)c1ccc(N2Cc3ccccc3C2=O)cc1` (configuration not stated), the melting point was found to be 128 °C.

`CN(C)c1ccc2c(c1)C(=O)CC(c1cccc(OCc3ccccc3)c1)=N2` registered a melting point of 307 to 308 °C.

With `O=S(=O)(CC1CS1)c1ccc(Oc2ccccc2)cc1` (configuration not stated), the melting point is 99 to 101 °C.

As to `CCOC(=O)Cn1c(C(=O)NCc2nnc(C)n2-c2sc(CC)cc2C(=O)c2ccccc2Cl)cc2ccccc21`, the melting point was in the range of 138 to 140 °C.

`COc1ccc2c(c1)C1(CCN(CCCC(=O)c3ccc(F)cc3)C1)CC2O` (configuration not stated): the melting point lay within 163 to 165 °C.

In turn, `CC12CCC(Oc3c(F)c(F)c(C(F)(F)F)c(F)c3F)=CC1=CCC1C2CCC2(C)C(c3cccnc3)=CCC12` (configuration not stated) showed a melting point of 166 °C.

With `O=C(c1ccccn1)c1nsc2nccn12`, the melting point was 147 to 148 °C.

For `C[C@@H]1O[C@](/C=C/C2CC2)(C(F)(F)F)c2c(ccc3c2OCO3)NC1=O` (relative stereo), the melting point was in the range of 236 to 237 °C.

As to `CC(C)(C)c1ccc(COc2cc3c(cc2C(=O)c2ccc(C(=O)O)cc2)C(C)(C)CCC3(C)C)cc1`, the melting point was 218 to 219 °C.

For the compound `COc1ccc(CCCCCCCSc2ccccc2)cc1`, the melting point was in the range of 58 to 59 °C.

With `CCCCCC1CCC(c2ccc(-c3cc(F)c(N)cc3F)cc2)CC1` (configuration not stated), the melting point is 68.3 to 70.4 °C.

For `Cc1noc(NS(=O)(=O)c2c(Cc3ccccc3)sc3ccccc23)c1Br`, the melting point was 120 to 123 °C.

`O=S1(=O)N=CN(C2CC2)c2cc(F)cc(Br)c21` gave a melting point of 270 to 273 °C.

The compound `O=C(O)c1cc(F)cc(-c2ccc(F)c3cc(Cc4cccc(C(F)(F)F)c4)sc23)c1` registered a melting point of 169 to 170 °C.

`COC(=O)c1cc2cc(OC)c(OC)cc2c(-c2ccnc(-n3c(=O)cc(OCC(=O)OCc4ccccc4)c4ccccc43)c2)c1C(=O)OC`: the melting point was in the range of 186 to 189 °C.

`CC(=O)N(c1ccccc1)c1ccccc1-c1ccc(I)cc1` came in with a melting point of 135 to 136 °C.

On to `COc1cc(Oc2ccc(S(C)(=O)=O)cn2)cc2cc(C3=NCC(CC(C)(C)O)S3)[nH]c12` (configuration not stated), for which the melting point lay within 171 to 173 °C.

In turn, `O=S(=O)(c1nc[nH]n1)C(F)(F)Br` returned a melting point of 176 to 177 °C.

Compound `C=C(C)COc1ccc(C)c2c1C(=O)CC2` showed a melting point of 74.2 to 75.2 °C.

Regarding `CC(=O)Nc1ccccc1NS(=O)(=O)c1cc(C(=O)O)cc([N+](=O)[O-])c1Cl`, the melting point is 225 to 227 °C.

Compound `CCC(=O)Nc1cc(-c2ccnc(Nc3cccc(Cl)c3)n2)ccn1` returned a melting point of 215 to 216 °C.

`CONC(=O)Nc1ccc(-c2sc3c(c2CCl)c(=O)n(-c2ccccc2)c(=O)n3Cc2c(F)cccc2F)cc1` displayed a melting point of 217 to 219 °C.

`O=C(NC(=O)c1c(Cl)cccc1Cl)Nc1cc(Br)c(Br)cc1C(F)(F)F` displayed a melting point of 204 °C.

In the case of `O=S(=O)(c1nc[nH]n1)c1ccc(C(F)(F)F)cc1Cl`, the melting point was 222 to 224 °C.

With `CCN(CC)C(=O)n1nc(Oc2ncc(C(F)(F)F)cc2Cl)cc1C(F)(F)F`, the melting point is 58 to 60 °C.

`Nc1cnc(-c2ccncc2)c(-c2cccc(F)c2)n1` registered a melting point of 221 to 222 °C.

Take `Cc1nc(N)sc1-c1ccnc(Nc2ccc(N3CCSCC3)cc2)n1`: the melting point was in the range of 180 to 182 °C.

Compound `Cc1cnc(-c2ssc(=S)c2C)cn1` had a melting point of 162 to 163 °C.

`CC12C=CC(=O)C=C1C(F)CC1C2=CCC2(C)C(C(=O)CCl)=CCC12` (configuration not stated) yielded a melting point of 196 to 200 °C.

`Cc1nc2c(C)cccn2c(=O)c1CCN1CC=C(c2c[nH]c3ccc(F)cc23)CC1` came in with a melting point of 229 to 230 °C.

Compound `CCCCCCCCCCCCCCCCCCN(CCCCCCCCCCCCCCCCCC)c1ccccc1` returned a melting point of 110 to 111 °C.

Take `CC(=O)OC1CCCc2cnc3ccc(OCc4ccccc4[N+](=O)[O-])cc3c21` (configuration not stated): the melting point lay within 125 to 127 °C.
